One data set concerns Hepatotoxicity. Briefly: Human drug-induced liver injury (DILI) modelling dataset from Ekins et al.
Settings: not given
Take `Cc1cn([C@H]2C=C[C@@H](CO)O2)c(=O)[nH]c1=O` [STAVUDINE]: the Hepatotoxicity result is “DILI positive (training set)”.
Same read-out and setting: then `CN(N=O)C(=O)N[C@@H](C=O)[C@@H](O)[C@H](O)[C@H](O)CO` [STREPTOZOCIN], with “DILI negative (test set)”.
Regarding `CN1C(C(=O)Nc2nccs2)=C(O)c2ccccc2S1(=O)=O` [SUDOXICAM], the Hepatotoxicity result is “DILI positive (test set)”.
With `Clc1ccc(CSC(Cn2ccnc2)c2ccc(Cl)cc2Cl)cc1.O=[N+]([O-])O` (stereo not drawn) [SULCONAZOLE NITRATE], the Hepatotoxicity entry is “DILI negative (test set)”.
`Nc1ccc(S(=O)(=O)NC(=O)c2ccccc2)cc1` [SULFABENZAMIDE]: the Hepatotoxicity result was “DILI negative (test set)”.
Turning to `Cc1nnc(NS(=O)(=O)c2ccc(N)cc2)s1` [SULFAMETHIZOLE], the Hepatotoxicity entry is “DILI positive (test set)”.
As to `O=C(O)c1cc(/N=N/c2ccc(S(=O)(=O)Nc3ccccn3)cc2)ccc1O` [SULFASALAZINE], the Hepatotoxicity entry was “DILI positive (training set)”.
In the case of `O=C1C(CC[S+]([O-])c2ccccc2)C(=O)N(c2ccccc2)N1c1ccccc1` (stereo not drawn) [SULFINPYRAZONE], the Hepatotoxicity entry was “DILI positive (test set)”.
With `O=C1OC(c2ccc(O)c(S(=O)(=O)O)c2)(c2ccc(O)c(S(=O)(=O)O)c2)c2c(Br)c(Br)c(Br)c(Br)c21` [SULFOBROMOPHTHALEIN], the Hepatotoxicity entry was “DILI positive (test set)”.
In the case of `Cc1nc(C)c2c(n1)N(Cc1ccc(-c3ccccc3-c3nnn[nH]3)cc1)C(=O)CC2` [TASOSARTAN], the Hepatotoxicity entry is “DILI positive (test set)”.
With `Cc1scc2c1N(C(=O)CN1CCN(C)CC1)c1ccccc1NC2=O` [TELENZEPINE], the Hepatotoxicity entry is recorded as “DILI negative (test set)”.
The same measure, in the same setting: then `CC1CN(c2cc3c(cc2F)c(=O)c(C(=O)O)cn3-c2ccc(F)cc2F)CCN1` (stereo not drawn) [TEMAFLOXACIN], with “DILI positive (test set)”.
As for `Cn1nnc2c(C(N)=O)ncn2c1=O` [TEMOZOLOMIDE], the Hepatotoxicity result is “DILI negative (training set)”.
As for `CC(C)(C)c1ccc(C(O)CCCN2CCC(C(O)(c3ccccc3)c3ccccc3)CC2)cc1` (stereo not drawn) [TERFENADINE], the Hepatotoxicity entry is on record as “DILI negative (training set)”.
For the compound `CCCCNc1ccc(C(=O)OCCN(C)C)cc1.Cl` [TETRACAINE HYDROCHLORIDE], the Hepatotoxicity entry is listed as “DILI negative (training set)”.
Still for that read-out and setting: in the case of `CN(C)[C@@H]1C(O)=C(C(N)=O)C(=O)[C@@]2(O)C(O)=C3C(=O)c4c(O)cccc4[C@@](C)(O)[C@H]3C[C@@H]12` [TETRACYCLINE] it was “DILI positive (training set)”; in that of `Cn1c(=O)c2[nH]cnc2n(C)c1=O.O` [THEOPHYLLINE], “DILI negative (test set)”.
On the same count and under the same terms, in the case of `CC(=N)S` [THIOACETAMIDE] it was “DILI positive (training set)”.
In the case of `CN1c2ccccc2C(NCCCCCCC(=O)O)c2ccc(Cl)cc2S1(=O)=O` (stereo not drawn) [TIANEPTINE], the Hepatotoxicity entry is on record as “DILI positive (training set)”.
With `CC(C)(C)NC[C@H](O)COc1nsnc1N1CCOCC1.O=C(O)/C=C\C(=O)O` [TIMOLOL MALEATE], the Hepatotoxicity result was “DILI positive (training set)”.
The same measure, in the same setting: then `NC[C@H]1O[C@H](O[C@H]2[C@H](O)[C@@H](O[C@H]3O[C@H](CO)[C@@H](O)[C@H](N)[C@H]3O)[C@H](N)C[C@@H]2N)[C@H](N)C[C@@H]1O` [TOBRAMYCIN], with “DILI positive (test set)”.
For `Cc1ccc(S(=O)(=O)NC(=O)NN2CCCCCC2)cc1` [TOLAZAMIDE], the Hepatotoxicity entry was “DILI positive (test set)”.
As to `Cc1ccc(C(=O)c2ccc(CC(=O)O)n2C)cc1` [TOLMETIN], the Hepatotoxicity result is listed as “DILI positive (training set)”.
With `COc1ccc2c(C(=S)N(C)CC(=O)O)cccc2c1C(F)(F)F` [TOLRESTAT], the Hepatotoxicity result is “DILI positive (test set)”.
With `CC1(C)O[C@@H]2[C@@H](CO[C@@]3(COS(N)(=O)=O)OC(C)(C)O[C@@H]23)O1` [TOPIRAMATE], the Hepatotoxicity entry is “DILI negative (test set)”.
Consider `Cl.O=c1n(CCCN2CCN(c3cccc(Cl)c3)CC2)nc2ccccn12` [TRAZODONE HYDROCHLORIDE], for which the Hepatotoxicity entry is “DILI positive (training set)”.
`CC1=C(/C=C/C(C)=C/C=C/C(C)=C/C(=O)O)C(C)(C)CCC1` [TRETINOIN]: the Hepatotoxicity entry is “DILI positive (training set)”.
Same read-out and setting: then `ClC=C(Cl)Cl` [TRICHLOROETHYLENE], with “DILI positive (test set)”; and `CN1CCN(CCCN2c3ccccc3Sc3ccc(C(F)(F)F)cc32)CC1` [TRIFLUOPERAZINE], with “DILI positive (training set)”.
Regarding `CN1C(=O)OC(C)(C)C1=O` [TRIMETHADIONE], the Hepatotoxicity entry was “DILI positive (training set)”.
As to `COc1cc(C(=O)NCc2ccc(OCCN(C)C)cc2)cc(OC)c1OC.Cl` [TRIMETHOBENZAMIDE HYDROCHLORIDE], the Hepatotoxicity result is on record as “DILI positive (test set)”.
As for `CN(C)CCN(Cc1ccccc1)c1ccccn1.Cl` [TRIPELENNAMINE HYDROCHLORIDE], the Hepatotoxicity entry is given as “DILI positive (test set)”.
In the case of `Cc1c(C)c2c(c(C)c1O)CCC(C)(COc1ccc(CC3SC(=O)NC3=O)cc1)O2` (stereo not drawn) [TROGLITAZONE], the Hepatotoxicity entry is “DILI positive (test set)”.

The data set is the same for the next values; noted with them: Liver.
`CN[C@@H]1[C@H](O[C@H]2[C@H](O[C@H]3[C@H](O)[C@@H](O)[C@H](N=C(N)N)[C@@H](O)[C@@H]3N=C(N)N)O[C@@H](C)[C@]2(O)C=O)O[C@@H](CO)[C@H](O)[C@H]1O.CN[C@@H]1[C@H](O[C@H]2[C@H](O[C@H]3[C@H](O)[C@@H](O)[C@H](N=C(N)N)[C@@H](O)[C@@H]3N=C(N)N)O[C@@H](C)[C@]2(O)C=O)O[C@@H](CO)[C@H](O)[C@H]1O.O=S(=O)(O)O.O=S(=O)(O)O.O=S(=O)(O)O` [STREPTOMYCIN SULFATE]: the Hepatotoxicity result was “DILI negative (training set)”.
For the compound `[H]/N=C(/N)N[C@H]1[C@H](O)[C@@H](O)[C@H](O[C@@H]2O[C@@H](C)[C@](O)(C=O)[C@H]2O[C@@H]2O[C@@H](CO)[C@H](O)[C@@H](O)[C@@H]2NC)[C@@H](N/C(N)=N\[H])[C@@H]1O` [STREPTOMYCIN], the Hepatotoxicity entry is given as “DILI negative (test set)”.
With `Nc1ccc(S(N)(=O)=O)cc1` [SULFANILAMIDE], the Hepatotoxicity entry is “DILI positive (test set)”.
As to `Nc1c2c(nc3ccccc13)CCCC2` [TACRINE], the Hepatotoxicity result was “DILI negative (training set)”.
Consider `CC[C@H]1OC(=O)[C@H](C)C(=O)[C@H](C)[C@@H](O[C@@H]2O[C@H](C)C[C@H](N(C)C)[C@H]2O)[C@](C)(OC)C[C@@H](C)C(=O)[C@H](C)[C@H]2N(CCCCn3cnc(-c4cccnc4)c3)C(=O)O[C@]12C` [TELITHROMYCIN], for which the Hepatotoxicity result is reported as “DILI positive (test set)”.
Regarding `Cc1ncc(C[n+]2csc(CCO)c2C)c(N)n1` [THIAMINE ION], the Hepatotoxicity entry is reported as “DILI negative (test set)”.
Still for that read-out and setting: then `Clc1ccccc1CN1CCc2sccc2C1` [TICLOPIDINE], with “DILI positive (training set)”; and `Cc1ccc(C(=O)c2cc(O)c(O)c([N+](=O)[O-])c2)cc1` [TOLCAPONE], with “DILI positive (test set)”.
As for `Cl.N[C@@H]1C[C@H]1c1ccccc1` [TRANYLCYPROMINE HYDROCHLORIDE], the Hepatotoxicity result is listed as “DILI negative (training set)”.
With `COc1cc(Cc2cnc(N)nc2N)cc(OC)c1OC` [TRIMETHOPRIM], the Hepatotoxicity result is “DILI positive (test set)”.

For the origin of these results see ChEMBL document CHEMBL1697723, “A predictive ligand-based Bayesian model for human drug-induced liver injury” (Drug Metab Dispos, 2010).
